According to patent US20230017045A1, “PYRIDINE AND PYRIMIDINE CARBOXYLATE HERBICIDES AND METHODS OF USE THEREOF” (Dow AgroSciences LLC, priority 2017, published 2023):
Like-named read-outs stand apart in the source and are kept apart here.

Tested on: test plant species
Assay: Post-emergent herbicidal activity test (greenhouse, foliar spray, visual growth reduction)
Assay type: in vivo
Conditions: post-emergence, 336 h, 140 g ai/ha, 14 days after application
Experimental: Post-emergent Test: Seeds or nutlets of the desired test plant species were planted in Sun Gro Metro-Mix® 360 planting mixture, which typically has a pH of 6.0 to 6.8 and an organic matter content of about 30 percent, in plastic pots with a surface area of 64 square centimeters. In some aspects, to ensure good germination and healthy plants, a fungicide treatment and/or other chemical or physical treatment was applied. The plants were grown for 7-21 d in a greenhouse with an approximate 15 h photoperiod which was maintained at 23-29° C. during the day and 22-28° C. during the night. Nutrients and water were added on a regular basis and supplemental lighting was provided with overhead metal halide 1000-Watt lamps as necessary. Plants were used for testing when they reached the first or second true leaf stage. A weighed amount, determined by the highest rate to be tested, of each test compound was placed in a 25 mL glass vial and was dissolved in 4 mL of a 97:3 v/v mixture of acetone and DMSO to obtain concentrated stock solutions. […] The concentrated stock solutions obtained were diluted with 20 mL of an aqueous mixture containing acetone, water, isopropyl alcohol, DMSO, […] crop oil concentrate, and X-77 surfactant in a 48.5:39:10:1.5:1.0:0.02 v/v ratio to obtain spray solutions containing the application rate. Compound requirements are based upon a 12 mL application volume at a rate of 187 liters per hectare (L/ha). Formulated compounds were applied to the plant material with an overhead Mandel track sprayer equipped with […] nozzles calibrated to deliver 187 L/ha over an application area of 0.64 square meters at a spray height of 18 inches (43 cm) above the average plant canopy height. Control plants were sprayed in the same manner with the solvent blank. The treated plants and control plants were placed in a greenhouse as described above and watered by subirrigation to prevent wash-off of the test compounds. After 14 d, the condition of the test plants as compared with that of the nontreated and control plants was determined visually and scored on a scale of 0 to 100 percent where 0 corresponds to no injury and 100 corresponds to complete control. In the reporting of the results, Table A: Percent Growth Reduction Conversion Table was used.

[1] = ALOMY: blackgrass (Alopecurus myosuroides), read-out: Visual Growth Reduction (%) 14 Days After Application, ALOMY
[2] = AMARE: redroot pigweed (Amaranthus retroflexus), read-out: Visual Growth Reduction (%) 14 Days After Application, AMARE
[3] = AVEFA: wild oat (Avena fatua), read-out: Visual Growth Reduction (%) 14 Days After Application, AVEFA
[4] = CHEAL: lambsquarters (Chenopodium album), read-out: Visual Growth Reduction (%) 14 Days After Application, CHEAL
[5] = CIRAR: canada thistle (Cirsium arvense), read-out: Visual Growth Reduction (%) 14 Days After Application, CIRAR
[6] = CYPES: yellow nutsedge (Cyperus esculentus), read-out: Visual Growth Reduction (%) 14 Days After Application, CYPES
[7] = DIGSA: crabgrass (Digitaria sanguinalis), read-out: Visual Growth Reduction (%) 14 Days After Application, DIGSA
[8] = ECHCG: barnyardgrass (Echinochloa crus-galli), read-out: Visual Growth Reduction (%) 14 Days After Application, ECHCG
[9] = IPOHE: ivy-leaf morning glory (Ipomoea hederacea), read-out: Visual Growth Reduction (%) 14 Days After Application, IPOHE
[10] = KCHSC: kochia (Bassia scoparia), read-out: Visual Growth Reduction (%) 14 Days After Application, KCHSC
[11] = ORYSA: rice (Oryza sativa), read-out: Visual Growth Reduction (%) 14 Days After Application, ORYSA
[12] = SETFA: giant foxtail (Setaria faberi), read-out: Visual Growth Reduction (%) 14 Days After Application, SETFA
[13] = SORVU: grain sorghum (Sorghum vulgare), read-out: Visual Growth Reduction (%) 14 Days After Application, SORVU
[14] = STEME: common chickweed (Stellaria media), read-out: Visual Growth Reduction (%) 14 Days After Application, STEME
[15] = TRZAS: wheat, spring (Triticum aestivum), read-out: Visual Growth Reduction (%) 14 Days After Application, TRZAS

Row | SMILES | pest or weed control at 140 g/ha [1] [%] | pest or weed control at 140 g/ha [2] [%] | pest or weed control at 140 g/ha [3] [%] | pest or weed control at 140 g/ha [4] [%] | pest or weed control at 140 g/ha [5] [%] | pest or weed control at 140 g/ha [6] [%] | pest or weed control at 140 g/ha [7] [%] | pest or weed control at 140 g/ha [8] [%] | pest or weed control at 140 g/ha [9] [%] | pest or weed control at 140 g/ha [10] [%] | pest or weed control at 140 g/ha [11] [%] | pest or weed control at 140 g/ha [12] [%] | pest or weed control at 140 g/ha [13] [%] | pest or weed control at 140 g/ha [14] [%] | pest or weed control at 140 g/ha [15] [%]
1 | O=C(O)c1nc(-c2ccc(SC(F)(F)F)cc2)c(Cl)cc1Cl [F89, 3,5-Dichloro-6-(4-((trifluoromethyl)thio)phenyl) picolinic acid] | 0 to 29 | 0 to 29 | 0 to 29 | 45 to 59 | 0 to 29 | 0 to 29 | 30 to 44 | 0 to 29 | 0 to 29 | 0 to 29 | 0 to 29 | 0 to 29 | 0 to 29 | 0 to 29 | 0 to 29
2 | COC(=O)c1nc(-c2ccc(SC(F)(F)F)cc2Cl)ccc1Cl [F90, Methyl 3-chloro-6-(2-chloro-4-((trifluoromethyl)thio)phenyl) picolinate] | 0 to 29 | 75 to 84 | 0 to 29 | 75 to 84 | 85 to 94 | 0 to 29 | 60 to 74 | 0 to 29 | 75 to 84 | 30 to 44 | 0 to 29 | 45 to 59 | 60 to 74 | 0 to 29 | 0 to 29
3 | COC(=O)c1nc(-c2ccc(SC(F)(F)F)cc2)c(F)cc1Cl [F91, Methyl 3-chloro-5-fluoro-6-(4-((trifluoromethyl)thio)phenyl) picolinate] | 0 to 29 | 0 to 29 | 0 to 29 | 0 to 29 | 30 to 44 | 0 to 29 | 0 to 29 | 0 to 29 | 30 to 44 | 0 to 29 | 0 to 29 | 0 to 29 | 0 to 29 | 0 to 29 | 0 to 29
4 | COC(=O)c1nc(-c2ccc(C(F)(F)F)nc2)c(F)cc1Cl [F92, methyl 5-chloro-3-fluoro-6′-(trifluoromethyl)-[2,3′-bipyridine]-6-carboxylate] | 0 to 29 | 0 to 29 | 0 to 29 | 0 to 29 | 0 to 29 | 0 to 29 | 30 to 44 | 0 to 29 | 30 to 44 | 0 to 29 | 0 to 29 | 0 to 29 | 0 to 29 | 0 to 29 | 0 to 29
5 | COC(=O)c1nc(-c2ccc(C(F)(F)F)cc2)c(F)cc1Cl [F93, Methyl 3-chloro-5-fluoro-6-(4-(trifluoromethyl)phenyl)picolinate] | 0 to 29 | 0 to 29 | 0 to 29 | 45 to 59 | 30 to 44 | 0 to 29 | 60 to 74 | 0 to 29 | 60 to 74 | 0 to 29 | 0 to 29 | 0 to 29 | 0 to 29 | 0 to 29 | 0 to 29
